Laboratory results: patent US20100254928A1, “NOVEL COMPOSITION CONTAINING OZONIZED SURFACTANT” (priority 2007, published 2010)

Key:
insects such as ants = assay: Repellent activity (Test Example 14); assay type: in vivo, pill bug; conditions: 2 mL of 1% aqueous solution on tissue paper with 1 g honey, 8 hours
Procedure: The repellent performance of the ozonized surfactant of the present invention was checked. […] In addition, 1 g of honey was instilled into the center. […] These specimens were placed on leaf mold in a flower bed, and the conditions were observed 8 hours later.

[1] = Temporal change in oxidizing property (iodine titration method); assay type: physicochemical; conditions: 25° C.
Description: After deaerating the obtained aqueous ozonized surfactant solution to remove dissolved ozone gas by helium purging, the oxidizing property of the aqueous ozonized surfactant solution can be determined by the iodine titration method (see Non Patent Literature 1). Whether or not the aqueous ozonized surfactant solution maintains a function as a surfactant can be evaluated by checking whether or not frothing, which is a characteristic of surfactants, occurs when the solution is agitated or vibrated.
Meanwhile, oxygen was supplied from an oxygen cylinder into an ozonizer (ozonizer GR-RB made by Sumitomo Precision Products Co., Ltd.) at an oxygen flow rate of 0.3 L/min to ozonize the oxygen to produce ozone gas. Then, the ozone gas was dissolved in the above-described aqueous solution in a dissolving module (SEK model made by ERC Technology), and the aqueous solution was circulated at a flow rate of 1 L/min. […] Further, in 30 minutes, the concentration increased to 25 ppm (see FIG. 2). After deaerating the aqueous solution that had undergone about 30-minute ozone treatment to remove dissolved ozone gas by helium purging, oxidizing property of the aqueous solution was determined by the iodine titration method. As a result, the aqueous solution had oxidizing property, and frothing, which is a characteristic of surfactants, was observed. The results confirmed that ozonized Tween 80 had been produced. Further, a temporal change in the oxidizing property of the aqueous solution was determined by the iodine titration method at 25° C. for 20 days. As a result, the percentage of oxidizing property measured after 20 days to that measured just after preparation was 109%.
The solution A was diluted to a 1% aqueous solution, and a temporal change in the oxidizing property of the aqueous solution was determined by the iodine titration method at 25° C. for 700 days. As a result, the percentage of oxidizing property measured after 700 days to that measured just after preparation was 101%.

slug = assay: Insecticidal activity: test of killing slugs; assay type: in vivo; conditions: 1% aqueous solution, 2 pushes: 1.88 mL sprayed from 15 cm above
Procedure: In order to check the insect control performance of the ozonized surfactant, a test of killing slugs was performed. A slug was put into a glass petri dish. Onto the slug, a 1% aqueous solution of the ozonized surfactant obtained in Example 4, 5, 7, 9 or 10 (2 pushes: 1.88 mL) was sprayed from 15 cm above. After that, the time elapsed until the slug died (the motion stopped) was measured. As a control, the same evaluation was simultaneously performed with a commercial insecticide (product name: NEW Namekuji (slug) Spray, made by Sumitomo Chemical Garden Products Inc., Lot No. 11.05 0806JE) containing a natural substituted phenol, a copper compound and an alcohol, as active ingredients.

[2] = tested on: mold (filamentous fungus); assay: Evaluation of antiseptic activity in thickener solution; assay type: cell-based; conditions: 0.1% in 3.5% Carbopol ETD2020 aqueous solution, 25° C.
Procedure: In order to check the antiseptic performance of ozonized surfactants, the ozonized surfactants were added to a substance susceptible to mold. […] Into a 100 mL-glass bottle, 50 mL of the sample was charged. The bottles were kept at 25° C. in a thermostatic air chamber, and temporal changes were visually observed. […] The mold-like material was removed and examined under a 700-power microscope. As a result, spores were detected and the material was identified as a filamentous fungus. The above results confirmed the antiseptic activity of the ozonized surfactants.

Arge pagana larva = assay: Insecticidal activity: test of killing other insects; assay type: in vivo; conditions: 2% aqueous solution, 1.88 mL sprayed
Procedure: (§1) In order to check the insect control performance of the ozonized surfactant, a test of killing other insects was performed. An Orgyia thyellina larva, a Sphrageidus similis larva, and an Arge pagana larva were put into separate glass petri dishes. Onto each insect pest, a 2% aqueous solution of the solution obtained in Example 5 (2 pushes: 1.88 mL) was sprayed from 15 cm above. After that, the time elapsed until each insect died (the motion stopped) was measured.

Orgyia thyellina larva = assay: as above; assay type: in vivo; conditions: 2% aqueous solution, 1.88 mL sprayed
Procedure: as §1

[3] = tested on: Sphrageidus similis larva; assay: as above; assay type: in vivo; conditions: 2% aqueous solution, 1.88 mL sprayed
Procedure: as §1

[4] = Surface-active property test (contact angle); assay type: physicochemical
Procedure: The surface-active properties of ozonized surfactants were determined in the following manner. Aqueous solutions each containing 1% Tween 80, POE (10 EO) oleyl ether or POE (20 EO) oleyl ether (all of which were made by Wako Pure Chemical Industries, Ltd.) were prepared. Each solution was dropped on a polyvinyl chloride plate and measured for a contact angle (θ) with the use of a contact angle meter CA-VP (made by Kyowa Interface Science Co., Ltd.). The same measurement was carried out for a 1% aqueous solution of the ozonized surfactant obtained in Example 1, 4, or 8.

For `CCCCCCCC/C=C\CCCCCCCC[N+](C)(C)CCCCCCCC/C=C\CCCCCCCC.[Cl-]` [Unozonized surfactant of Ex. 10, dimethyldioleylammonium chloride, reference compound], the “ants gathered on the specimen” value (insects such as ants) was 15 ants.

For “Ozonized POE (20 EO) oleyl ether [Example 8]”, the “percentage of oxidizing property measured after 300 days to that measured just after preparation” value ([1]; 1% aqueous solution, 300 days) was 100%.

In the case of “Ozonized POE sorbitan monooleate (20 EO) [Example 7]”, the “percentage of oxidizing property measured after 700 days to that measured just after preparation” value ([1]; 1% aqueous solution, 700 days) is reported as 100% and the “Death time of slug” value (slug) is reported as 244 s.

For “Ozonized decaglycerin monooleate [Example 6]”, the “Antiseptic activity of thickener soln. (visually observed), 1 month after” value [2] was “Good”, the “Antiseptic activity of thickener soln. (visually observed), 1 week after” value [2] was “Good” and the “insects gathered on the specimen” value (insects such as ants) was “did not gather at all”.

In the case of “Ozonized polyethylene glycol monooleate [Example 5]”, the “percentage of oxidizing property measured after 180 days to that measured just after preparation” value ([1]; 1% aqueous solution, 180 days) is reported as 100%, the “Antiseptic activity of thickener soln. (visually observed), 1 month after” value [2] is reported as “Good” and the “Antiseptic activity of thickener soln. (visually observed), 1 week after” value [2] is reported as “Good”. The “Death time of slug” value (slug) was 729 s, the Death time (Arge pagana larva) was 115 s and the Death time (Orgyia thyellina larva) was 100 s. The Death time [3] was 130 s.

With POE (20 EO) oleyl ether the “Contact angle, After ozonization” value ([4]; 1% aqueous solution of the ozonized surfactant obtained in Example 1, 4, or 8, on polyvinyl chloride plate) was 26.7 degree (°) and the “Contact angle, Before ozonization” value ([4]; 1% aqueous solution on polyvinyl chloride plate, ion exchange water 87.3°) was 59.4 degree (°).

With “decaglycerin monooleate [Decaglycerol monooleate, reference compound]” the “ants gathered on the specimen” value (insects such as ants) was 10 ants.

For ozonized Tween 80 [Example 1], the “percentage of oxidizing property measured after 20 days to that measured just after preparation” value ([1]; 0.1% aqueous solution, 20 days) was 109%.
